This is an account of results in PubChem BioAssay (NCI).

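Grown in 96-well plates, cells were treated for 48 hours with each compound at five concentrations. Insufficient inhibition: endpoint recorded as highest concentration tested. TGI denotes the concentration required for complete inhibition of growth.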

Some test systems named below: UO-31 renal; PC-3 prostate; SF-268 CNS; IGROV1 ovarian; K-562 leukemia; A498 renal; MDA-MB-435; M14 melanoma; BT-549 breast; NCI-H460 lung; HT29 colon; RXF 393 renal; DU-145 prostate; SK-MEL-28 melanoma; SK-MEL-2 melanoma; HCC-2998 colon; COLO 205 colon; SNB-19 CNS; HL-60(TB) leukemia.
Holding throughout (test): DTP human tumour cell line panel, 48 h

Broadly, the TGI is the concentration giving total growth inhibition. A lower TGI goes with more potent growth arrest. With `CC(C)C[C@H](NC(=O)[C@H](Cc1ccccc1)NC(=O)CCc1ccccc1)B(O)O`, the TGI is < 0.01 µM with UO-31 renal; < 0.01 µM in the assay on PC-3 prostate; < 0.01 µM in the assay with SF-268 CNS; < 0.01 µM with IGROV1 ovarian; > 100 µM with K-562 leukemia; < 0.01 µM in the assay with A498 renal. Also, the TGI in the assay on MDA-MB-435 is < 0.01 µM; in the assay on M14 melanoma, < 0.01 µM; in the assay with BT-549 breast, < 0.01 µM; in the assay on NCI-H460 lung it was < 0.0104 µM; in the assay on HT29 colon, < 0.01 µM; in the assay with RXF 393 renal, < 0.01 µM. Besides, the TGI with DU-145 prostate is < 0.01 µM; in the assay on SK-MEL-28 melanoma it was < 0.01 µM; in the assay with SK-MEL-2 melanoma, < 0.01 µM; in the assay on HCC-2998 colon it was < 0.01 µM; with COLO 205 colon, < 0.01 µM; with SNB-19 CNS, 1.08 µM.
For `C1=Nc2ccc(cc2)N=Cc2ccc(cc2)OCc2cccc(n2)COc2ccc1cc2`, the total growth inhibition concentration (TGI) with UO-31 renal, with PC-3 prostate, with SF-268 CNS, in the assay with IGROV1 ovarian, in the assay with K-562 leukemia and with A498 renal was > 100 µM throughout. Further, the TGI in the assay with MDA-MB-435, with M14 melanoma, in the assay with BT-549 breast, in the assay with HL-60(TB) leukemia, in the assay with NCI-H460 lung and in the assay with HT29 colon was > 100 µM in each case. The total growth inhibition concentration (TGI) with RXF 393 renal, in the assay with DU-145 prostate, in the assay on SK-MEL-28 melanoma, with SK-MEL-2 melanoma, in the assay with COLO 205 colon and in the assay on SNB-19 CNS was > 100 µM in each case.
For `O=C1CS(=O)(=O)C(c2cccc(Oc3ccccc3)c2)N1c1cccc(Cl)c1` (configuration not stated), the TGI was > 100 µM in the assay with UO-31 renal; > 100 µM in the assay with PC-3 prostate; 76.7 µM in the assay with SF-268 CNS; 69.9 µM in the assay on IGROV1 ovarian; 52.1 µM in the assay with K-562 leukemia; 65.8 µM with MDA-MB-435. In addition, the TGI in the assay on M14 melanoma was 92.2 µM; with BT-549 breast, 93.2 µM; in the assay with HL-60(TB) leukemia, > 100 µM; in the assay on NCI-H460 lung, 41.3 µM; in the assay with HT29 colon, > 100 µM; in the assay on RXF 393 renal, 52.7 µM. Also, the TGI in the assay with DU-145 prostate was > 100 µM; with SK-MEL-28 melanoma it was > 100 µM; with SK-MEL-2 melanoma it was 33.2 µM; in the assay on HCC-2998 colon, 15.7 µM; in the assay with COLO 205 colon, 41.1 µM; with SNB-19 CNS, > 100 µM.
`O=C(c1ccco1)N(Cc1ccco1)C(=S)Nc1ccccc1`: the TGI is 32.8 µM with UO-31 renal; > 100 µM in the assay with PC-3 prostate; 85.3 µM in the assay with SF-268 CNS; 42.2 µM in the assay on IGROV1 ovarian; 40.8 µM with K-562 leukemia; 30.2 µM with MDA-MB-435. The TGI worked out at 28.5 µM with M14 melanoma; 36.3 µM in the assay with BT-549 breast; 4.61 µM in the assay on HL-60(TB) leukemia; 99.8 µM in the assay with NCI-H460 lung; 42.1 µM in the assay on HT29 colon; 31.9 µM with RXF 393 renal. Besides, the TGI is > 100 µM with DU-145 prostate; 33.8 µM in the assay on SK-MEL-28 melanoma; 42.9 µM in the assay on SK-MEL-2 melanoma; 98.1 µM in the assay on HCC-2998 colon; 26.8 µM in the assay with COLO 205 colon; > 100 µM in the assay with SNB-19 CNS.
In the case of `CC(=O)Nc1ccc(N=C2C(c3ccccc3)=C(SC3=C(c4ccccc4)C(=Nc4ccc(NC(C)=O)cc4)c4ccccc43)c3ccccc32)cc1`, the TGI is > 100 µM in the assay with UO-31 renal; > 100 µM with PC-3 prostate; > 100 µM with SF-268 CNS; > 100 µM in the assay with IGROV1 ovarian; > 100 µM in the assay with K-562 leukemia; 87.1 µM with A498 renal. Further, the TGI in the assay on MDA-MB-435 is > 100 µM; with M14 melanoma, > 100 µM; in the assay on BT-549 breast, 73.1 µM; in the assay on NCI-H460 lung it was > 100 µM; in the assay with HT29 colon it was > 100 µM; with RXF 393 renal it was 82.8 µM. In addition, the TGI with DU-145 prostate, with SK-MEL-28 melanoma, in the assay on SK-MEL-2 melanoma, in the assay on HCC-2998 colon, in the assay with COLO 205 colon and with SNB-19 CNS was > 100 µM each time.
On to `CC1=NNC(=O)C1C1CC(c2c[nH]c3ccccc23)=NNC1=S` (configuration not stated), for which the TGI in the assay with UO-31 renal, with PC-3 prostate, with SF-268 CNS, in the assay with K-562 leukemia, in the assay with A498 renal and in the assay on MDA-MB-435 was > 100 µM each time. In addition, the TGI in the assay on M14 melanoma, in the assay with BT-549 breast, in the assay on HL-60(TB) leukemia, in the assay with NCI-H460 lung, in the assay with HT29 colon and in the assay with RXF 393 renal was > 100 µM each time. Besides, the TGI with DU-145 prostate, in the assay on SK-MEL-28 melanoma, in the assay with SK-MEL-2 melanoma, in the assay with COLO 205 colon and with SNB-19 CNS was > 100 µM throughout.
Consider `COC(=O)C1CCOC(C)N1C(=O)OC(C)(C)C` (configuration not stated), for which the TGI in the assay with UO-31 renal, in the assay on PC-3 prostate, with SF-268 CNS, in the assay on IGROV1 ovarian, in the assay on K-562 leukemia and with MDA-MB-435 was > 100 µM throughout. The concentration for total growth inhibition (TGI) in the assay on M14 melanoma, in the assay on BT-549 breast, in the assay with HL-60(TB) leukemia, in the assay with NCI-H460 lung, in the assay with HT29 colon and in the assay on RXF 393 renal was > 100 µM throughout. Moreover, the total growth inhibition concentration (TGI) in the assay on DU-145 prostate, in the assay on SK-MEL-28 melanoma, in the assay with SK-MEL-2 melanoma, with HCC-2998 colon, in the assay with COLO 205 colon and with SNB-19 CNS was > 100 µM in each case.
On to `O=C1NC(=O)C(CC(C(=O)C(=O)Nc2ccccc2Cl)C(=O)c2ccc3ccccc3c2)C(=O)N1` (configuration not stated), for which the concentration for total growth inhibition (TGI) with UO-31 renal, in the assay on PC-3 prostate, with SF-268 CNS, in the assay on IGROV1 ovarian, with MDA-MB-435 and with M14 melanoma was > 100 µM each time. Besides, the TGI with BT-549 breast, in the assay on HL-60(TB) leukemia, in the assay on NCI-H460 lung, in the assay on HT29 colon, in the assay with RXF 393 renal and in the assay with DU-145 prostate was > 100 µM each time. The total growth inhibition concentration (TGI) with SK-MEL-28 melanoma, in the assay with SK-MEL-2 melanoma, with HCC-2998 colon, with COLO 205 colon and in the assay on SNB-19 CNS was > 100 µM in each case.
